Experimental data taken from publication PMC9097471, “Development of Selective Phosphatidylinositol 5-Phosphate 4-Kinase γ Inhibitors with a Non-ATP-competitive, Allosteric Binding Mode” (Journal of Medicinal Chemistry, 2022).

Tests used:
PI5P4Kγ = system: PI5P4Kγ; set-up: method as in ref 30 (1), ref 23 (2); conditions: 32P-ATP/PI5P incorporation; ref 30 (1), ref 23 (2); cited from earlier work
ERK8 = ERK8 (Homo sapiens, UniProt Q8TD08); assay: Kinase panel, radiometric 33P filter binding; conditions: read-out: % activity remaining
Text: (§1) filter binding assay using 33P-g-ATPat the MRC PPU International Centre for Kinase Profiling, University of

ROCK 2 = ROCK 2 (Rattus norvegicus, UniProt Q62868); assay: Kinase panel, radiometric 33P filter binding; conditions: read-out: % activity remaining
Text: as §1

DAPK1 = DAPK1 (Homo sapiens, UniProt P53355); assay: Kinase panel, radiometric 33P filter binding; conditions: read-out: % activity remaining
Text: as §1

MKK1 = MKK1 (Homo sapiens, UniProt Q02750); assay: Kinase panel, radiometric 33P filter binding; conditions: read-out: % activity remaining
RSK2 = RSK2 (Homo sapiens, UniProt P51812); assay: Kinase panel, radiometric 33P filter binding; conditions: read-out: % activity remaining
Text: as §1

CAMK1 = CAMK1 (Homo sapiens, UniProt Q14012); assay: Kinase panel, radiometric 33P filter binding; conditions: read-out: % activity remaining
CAMK1, sequence (Q14012 whole entry): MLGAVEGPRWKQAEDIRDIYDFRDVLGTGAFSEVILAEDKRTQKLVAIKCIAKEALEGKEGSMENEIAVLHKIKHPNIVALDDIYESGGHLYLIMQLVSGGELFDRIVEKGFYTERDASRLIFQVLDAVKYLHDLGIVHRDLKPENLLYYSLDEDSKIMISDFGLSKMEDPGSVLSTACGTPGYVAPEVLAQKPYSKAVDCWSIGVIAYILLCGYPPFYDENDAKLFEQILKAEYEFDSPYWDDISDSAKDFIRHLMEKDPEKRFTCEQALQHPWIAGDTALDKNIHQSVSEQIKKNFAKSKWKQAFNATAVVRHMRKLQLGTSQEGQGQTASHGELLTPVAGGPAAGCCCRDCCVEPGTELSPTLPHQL
Text: as §1

EF2K = EF2K (Homo sapiens, UniProt O00418); assay: Kinase panel, radiometric 33P filter binding; conditions: read-out: % activity remaining
Text: as §1

MARK3 = MARK3 (Homo sapiens, UniProt P27448); assay: Kinase panel, radiometric 33P filter binding; conditions: read-out: % activity remaining
Text: as §1

MAPKAP-K2 = MAPKAP-K2 (Homo sapiens, UniProt P49137); assay: Kinase panel, radiometric 33P filter binding; conditions: read-out: % activity remaining
MAPKAP-K2, sequence (P49137 whole entry): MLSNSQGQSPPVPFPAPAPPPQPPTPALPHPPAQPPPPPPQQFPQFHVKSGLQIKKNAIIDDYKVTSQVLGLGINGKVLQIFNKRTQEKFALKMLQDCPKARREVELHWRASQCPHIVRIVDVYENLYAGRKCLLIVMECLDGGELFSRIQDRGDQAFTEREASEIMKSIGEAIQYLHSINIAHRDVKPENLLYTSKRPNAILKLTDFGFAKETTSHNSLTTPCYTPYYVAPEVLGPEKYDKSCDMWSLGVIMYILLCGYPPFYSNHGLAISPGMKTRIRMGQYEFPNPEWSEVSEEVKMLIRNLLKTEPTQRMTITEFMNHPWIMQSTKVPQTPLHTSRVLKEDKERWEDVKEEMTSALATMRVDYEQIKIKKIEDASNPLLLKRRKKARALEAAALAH

ULK1 = ULK1 (Homo sapiens, UniProt O75385); assay: Kinase panel, radiometric 33P filter binding; conditions: read-out: % activity remaining
Text: as §1

IR = IR (Homo sapiens, UniProt P06213); assay: Kinase panel, radiometric 33P filter binding; conditions: read-out: % activity remaining
Text: as §1

NEK2a = NEK2a (Homo sapiens, UniProt P51955); assay: Kinase panel, radiometric 33P filter binding; conditions: read-out: % activity remaining
Text: as §1

MLK1 = MLK1 (Homo sapiens, UniProt P80192); assay: Kinase panel, radiometric 33P filter binding; conditions: read-out: % activity remaining
Text: as §1

CDK2-Cyclin A = CDK2-Cyclin A (Homo sapiens, UniProt P24941); assay: Kinase panel, radiometric 33P filter binding; conditions: read-out: % activity remaining
Text: as §1

ULK2 = ULK2 (Homo sapiens, UniProt Q8IYT8); assay: Kinase panel, radiometric 33P filter binding; conditions: read-out: % activity remaining
Text: as §1

PDGFRA = PDGFRA (Homo sapiens, UniProt P16234); assay: Kinase panel, radiometric 33P filter binding; conditions: read-out: % activity remaining
Text: as §1
Kinase % activity remaining s.d.

TIE2 = TIE2 (Homo sapiens, UniProt Q02763); assay: Kinase panel, radiometric 33P filter binding; conditions: read-out: % activity remaining
TIE2, sequence (Q02763 23-1124): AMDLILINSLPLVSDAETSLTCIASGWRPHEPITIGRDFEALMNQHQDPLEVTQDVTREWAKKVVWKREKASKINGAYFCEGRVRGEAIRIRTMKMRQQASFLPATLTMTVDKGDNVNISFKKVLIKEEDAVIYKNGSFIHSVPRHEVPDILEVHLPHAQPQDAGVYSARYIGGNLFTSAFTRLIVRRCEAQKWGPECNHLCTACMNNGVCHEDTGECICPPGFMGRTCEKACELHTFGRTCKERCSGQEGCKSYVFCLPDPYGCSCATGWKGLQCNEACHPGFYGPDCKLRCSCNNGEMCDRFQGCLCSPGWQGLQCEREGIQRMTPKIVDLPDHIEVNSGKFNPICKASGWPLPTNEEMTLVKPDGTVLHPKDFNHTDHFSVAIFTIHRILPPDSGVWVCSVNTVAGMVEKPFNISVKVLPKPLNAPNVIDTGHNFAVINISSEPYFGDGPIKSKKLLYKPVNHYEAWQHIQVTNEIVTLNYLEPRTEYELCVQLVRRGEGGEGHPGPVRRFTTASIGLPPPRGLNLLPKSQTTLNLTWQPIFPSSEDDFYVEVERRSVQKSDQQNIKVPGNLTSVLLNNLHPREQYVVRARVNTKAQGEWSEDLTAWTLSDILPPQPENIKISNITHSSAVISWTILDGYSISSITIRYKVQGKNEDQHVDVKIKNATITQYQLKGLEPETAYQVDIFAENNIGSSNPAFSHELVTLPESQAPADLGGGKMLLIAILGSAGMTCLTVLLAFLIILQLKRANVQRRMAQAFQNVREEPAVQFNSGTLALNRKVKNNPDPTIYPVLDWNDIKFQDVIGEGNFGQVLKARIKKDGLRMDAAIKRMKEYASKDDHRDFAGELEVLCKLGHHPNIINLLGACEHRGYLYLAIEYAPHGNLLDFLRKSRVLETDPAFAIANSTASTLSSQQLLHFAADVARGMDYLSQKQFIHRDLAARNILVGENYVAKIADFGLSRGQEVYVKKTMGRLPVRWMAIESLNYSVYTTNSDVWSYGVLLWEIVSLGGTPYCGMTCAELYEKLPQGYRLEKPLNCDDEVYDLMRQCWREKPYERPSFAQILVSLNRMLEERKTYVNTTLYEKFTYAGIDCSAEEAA

TTBK1 = TTBK1 (Homo sapiens, UniProt Q5TCY1); assay: Kinase panel, radiometric 33P filter binding; conditions: read-out: % activity remaining
Text: as §1

MSK1 = MSK1 (Homo sapiens, UniProt O75582); assay: Kinase panel, radiometric 33P filter binding; conditions: read-out: % activity remaining
PIM3 = PIM3 (Homo sapiens, UniProt Q86V86); assay: Kinase panel, radiometric 33P filter binding; conditions: read-out: % activity remaining
Text: as §1

HIPK3 = HIPK3 (Homo sapiens, UniProt Q9H422); assay: Kinase panel, radiometric 33P filter binding; conditions: read-out: % activity remaining
HIPK3, sequence (Q9H422 whole entry): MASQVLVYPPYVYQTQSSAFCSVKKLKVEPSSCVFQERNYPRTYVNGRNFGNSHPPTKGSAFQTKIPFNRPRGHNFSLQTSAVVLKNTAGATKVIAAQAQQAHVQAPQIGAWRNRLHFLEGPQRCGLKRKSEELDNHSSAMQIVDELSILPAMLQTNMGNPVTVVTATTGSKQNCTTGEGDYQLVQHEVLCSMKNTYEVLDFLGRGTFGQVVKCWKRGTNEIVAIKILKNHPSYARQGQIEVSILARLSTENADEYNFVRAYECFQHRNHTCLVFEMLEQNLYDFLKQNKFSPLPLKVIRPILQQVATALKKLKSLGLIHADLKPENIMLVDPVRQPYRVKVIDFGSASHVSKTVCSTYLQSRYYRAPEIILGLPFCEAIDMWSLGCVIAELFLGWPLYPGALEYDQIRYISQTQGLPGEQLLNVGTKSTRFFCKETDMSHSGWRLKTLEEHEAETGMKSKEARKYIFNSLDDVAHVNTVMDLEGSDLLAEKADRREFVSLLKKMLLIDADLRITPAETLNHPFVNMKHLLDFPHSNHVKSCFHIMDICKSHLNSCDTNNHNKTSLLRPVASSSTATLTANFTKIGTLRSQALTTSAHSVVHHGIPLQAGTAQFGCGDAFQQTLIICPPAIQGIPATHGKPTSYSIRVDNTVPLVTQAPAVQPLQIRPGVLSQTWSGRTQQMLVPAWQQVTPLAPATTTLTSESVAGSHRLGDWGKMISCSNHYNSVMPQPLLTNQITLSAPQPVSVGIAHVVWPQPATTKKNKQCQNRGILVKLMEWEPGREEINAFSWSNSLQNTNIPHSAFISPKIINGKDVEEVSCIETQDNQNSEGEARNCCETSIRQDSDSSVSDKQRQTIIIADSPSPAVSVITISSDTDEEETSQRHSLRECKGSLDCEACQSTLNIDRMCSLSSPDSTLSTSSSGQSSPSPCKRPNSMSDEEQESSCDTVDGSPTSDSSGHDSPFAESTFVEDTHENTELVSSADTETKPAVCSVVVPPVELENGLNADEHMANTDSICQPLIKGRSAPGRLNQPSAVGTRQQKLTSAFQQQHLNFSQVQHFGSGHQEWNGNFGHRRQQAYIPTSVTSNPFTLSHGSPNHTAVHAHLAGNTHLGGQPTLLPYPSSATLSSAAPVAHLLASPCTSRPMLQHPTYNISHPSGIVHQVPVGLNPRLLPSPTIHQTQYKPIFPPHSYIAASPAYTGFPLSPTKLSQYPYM
Text: as §1

DYRK2 = DYRK2 (Homo sapiens, UniProt Q92630); assay: Kinase panel, radiometric 33P filter binding; conditions: read-out: % activity remaining
DYRK2, sequence (Q92630 whole entry): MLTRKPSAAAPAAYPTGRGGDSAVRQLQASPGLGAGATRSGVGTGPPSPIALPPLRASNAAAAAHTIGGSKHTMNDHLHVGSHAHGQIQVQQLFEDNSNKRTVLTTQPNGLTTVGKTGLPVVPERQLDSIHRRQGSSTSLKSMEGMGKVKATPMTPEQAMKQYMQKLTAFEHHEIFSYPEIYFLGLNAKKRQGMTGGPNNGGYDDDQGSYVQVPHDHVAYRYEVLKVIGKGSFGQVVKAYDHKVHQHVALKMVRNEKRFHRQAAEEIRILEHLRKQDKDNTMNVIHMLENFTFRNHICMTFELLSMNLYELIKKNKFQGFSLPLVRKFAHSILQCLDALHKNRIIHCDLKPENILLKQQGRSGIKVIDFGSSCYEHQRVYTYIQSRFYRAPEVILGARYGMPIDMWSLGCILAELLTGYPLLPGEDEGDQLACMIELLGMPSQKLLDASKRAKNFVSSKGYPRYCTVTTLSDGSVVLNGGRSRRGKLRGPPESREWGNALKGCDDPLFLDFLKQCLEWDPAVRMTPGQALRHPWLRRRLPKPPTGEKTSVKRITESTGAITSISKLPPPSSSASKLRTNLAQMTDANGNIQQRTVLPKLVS
Text: as §1

TTBK2 = TTBK2 (Homo sapiens, UniProt Q6IQ55); assay: Kinase panel, radiometric 33P filter binding; conditions: read-out: % activity remaining
Text: as §1

JNK3 = JNK3 (Homo sapiens, UniProt P53779); assay: Kinase panel, radiometric 33P filter binding; conditions: read-out: % activity remaining
Text: as §1

JNK1 = JNK1 (Homo sapiens, UniProt P45983); assay: Kinase panel, radiometric 33P filter binding; conditions: read-out: % activity remaining
Text: as §1

BRK = BRK (Homo sapiens, UniProt Q13882); assay: Kinase panel, radiometric 33P filter binding; conditions: read-out: % activity remaining
Text: as §1

BRSK1 = BRSK1 (Homo sapiens, UniProt Q8TDC3); assay: Kinase panel, radiometric 33P filter binding; conditions: read-out: % activity remaining
Text: as §1

CK1γ2 = CK1γ2 (Homo sapiens, UniProt P78368); assay: Kinase panel, radiometric 33P filter binding; conditions: read-out: % activity remaining
CK1γ2, sequence (P78368 whole entry): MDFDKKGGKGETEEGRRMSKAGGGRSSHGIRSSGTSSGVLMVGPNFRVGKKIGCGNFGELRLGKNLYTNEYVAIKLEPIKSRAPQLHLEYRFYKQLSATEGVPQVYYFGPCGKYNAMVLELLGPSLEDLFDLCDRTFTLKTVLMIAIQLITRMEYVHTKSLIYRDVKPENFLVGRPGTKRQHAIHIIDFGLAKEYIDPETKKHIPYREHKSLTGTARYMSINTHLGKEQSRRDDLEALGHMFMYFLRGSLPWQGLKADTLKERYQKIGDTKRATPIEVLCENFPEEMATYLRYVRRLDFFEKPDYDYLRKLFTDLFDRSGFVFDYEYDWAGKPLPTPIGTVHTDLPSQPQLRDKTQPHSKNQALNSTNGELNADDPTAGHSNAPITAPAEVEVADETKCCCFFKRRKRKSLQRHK
Text: as §1

TLK1 = TLK1 (Homo sapiens, UniProt Q9UKI8); assay: Kinase panel, radiometric 33P filter binding; conditions: read-out: % activity remaining
Text: as §1

p38d MAPK = p38d MAPK (Homo sapiens, UniProt O15264); assay: Kinase panel, radiometric 33P filter binding; conditions: read-out: % activity remaining
Text: as §1

EPH-B1 = EPH-B1 (Homo sapiens, UniProt P54762); assay: Kinase panel, radiometric 33P filter binding; conditions: read-out: % activity remaining
Text: as §1

CK1δ = CK1δ (Homo sapiens, UniProt P48730); assay: Kinase panel, radiometric 33P filter binding; conditions: read-out: % activity remaining
Text: as §1

PAK2 = PAK2 (Homo sapiens, UniProt Q13177); assay: Kinase panel, radiometric 33P filter binding
PAK2, sequence (Q13177 whole entry): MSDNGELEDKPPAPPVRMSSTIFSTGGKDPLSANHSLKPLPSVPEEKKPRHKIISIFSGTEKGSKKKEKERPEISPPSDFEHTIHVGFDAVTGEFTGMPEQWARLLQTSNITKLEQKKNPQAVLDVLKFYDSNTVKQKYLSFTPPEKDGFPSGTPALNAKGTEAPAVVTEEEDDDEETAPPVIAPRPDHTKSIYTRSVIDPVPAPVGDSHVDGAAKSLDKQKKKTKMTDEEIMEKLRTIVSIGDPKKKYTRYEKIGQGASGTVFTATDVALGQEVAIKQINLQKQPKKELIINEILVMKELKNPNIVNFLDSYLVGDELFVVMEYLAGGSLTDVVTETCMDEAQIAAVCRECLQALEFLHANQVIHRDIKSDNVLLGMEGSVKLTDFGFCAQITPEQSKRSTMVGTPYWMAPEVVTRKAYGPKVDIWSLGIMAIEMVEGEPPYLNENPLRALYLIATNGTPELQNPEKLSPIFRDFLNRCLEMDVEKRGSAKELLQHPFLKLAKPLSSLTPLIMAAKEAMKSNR

LKB1 = LKB1 (Homo sapiens, UniProt Q15831); assay: Kinase panel, radiometric 33P filter binding; conditions: read-out: % activity remaining
Text: as §1

JNK2 = JNK2 (Homo sapiens, UniProt P45984); assay: Kinase panel, radiometric 33P filter binding; conditions: read-out: % activity remaining
Text: as §1

Aurora A = Aurora A (Homo sapiens, UniProt O14965); assay: Kinase panel, radiometric 33P filter binding; conditions: read-out: % activity remaining
Aurora A, sequence (O14965 whole entry): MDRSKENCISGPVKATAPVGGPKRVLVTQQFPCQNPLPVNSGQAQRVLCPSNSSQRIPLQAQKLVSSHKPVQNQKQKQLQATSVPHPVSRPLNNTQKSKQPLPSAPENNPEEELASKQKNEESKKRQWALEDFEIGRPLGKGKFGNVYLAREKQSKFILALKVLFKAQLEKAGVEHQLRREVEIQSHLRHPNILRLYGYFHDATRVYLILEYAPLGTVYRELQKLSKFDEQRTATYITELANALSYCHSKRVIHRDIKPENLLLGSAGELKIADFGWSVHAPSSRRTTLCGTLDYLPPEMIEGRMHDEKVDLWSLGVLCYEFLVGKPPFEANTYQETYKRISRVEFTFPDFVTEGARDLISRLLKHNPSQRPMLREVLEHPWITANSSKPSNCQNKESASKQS
Text: as §1

FC(F)(F)c1ccccc1-c1nc(NCc2cccs2)c2ccccc2n1 [Compound 1, NIH-12848, reference compound]
IC50 (PI5P4Kγ): 2000 to 3000 nM

CC(C)c1ccccc1-c1nc(NCc2ccccn2)c2c(ccn2C)n1 [Compound 40]
remaining activity at 10 µM (ERK8): 109% | remaining activity at 10 µM (ROCK 2): 97% | remaining activity at 10 µM (DAPK1): 105% | remaining activity at 10 µM (MKK1): 92% | remaining activity at 10 µM (RSK2): 106% | remaining activity at 10 µM (CAMK1): 97% | remaining activity at 10 µM (EF2K): 98% | remaining activity at 10 µM (MARK3): 101% | remaining activity at 10 µM (MAPKAP-K2): 123% | remaining activity at 10 µM (ULK1): 111% | remaining activity at 10 µM (IR): 119% | remaining activity at 10 µM (NEK2a): 103% | remaining activity at 10 µM (MLK1): 89% | remaining activity at 10 µM (CDK2-Cyclin A): 103% | remaining activity at 10 µM (ULK2): 91% | remaining activity at 10 µM (PDGFRA): 100% | remaining activity at 10 µM (TIE2): 89% | remaining activity at 10 µM (TTBK1): 117% | remaining activity at 10 µM (MSK1): 95% | remaining activity at 10 µM (PIM3): 87% | remaining activity at 10 µM (HIPK3): 92% | remaining activity at 10 µM (DYRK2): 106% | remaining activity at 10 µM (TTBK2): 114% | remaining activity at 10 µM (JNK3): 97% | remaining activity at 10 µM (JNK1): 86% | remaining activity at 10 µM (BRK): 112% | remaining activity at 10 µM (BRSK1): 115% | remaining activity at 10 µM (CK1γ2): 97% | remaining activity at 10 µM (TLK1): 115% | remaining activity at 10 µM (p38d MAPK): 117% | remaining activity at 10 µM (EPH-B1): 95% | remaining activity at 10 µM (CK1δ): 100% | % activity remaining (PAK2; PAK2, 10 μM, 10 µM): < 50% | remaining activity at 10 µM (PAK2; read-out: % activity remaining, PAK2, 10 μM): 45% | remaining activity at 10 µM (LKB1): 94% | remaining activity at 10 µM (JNK2): 110% | remaining activity at 10 µM (Aurora A): 94%
